Test results as given in patent publication US4822879A, “Enzyme-inhibitory griseolic acid derivatives, and their use” (Sankyo Company Limited, priority 1984, dated 1989).

Columns and labels:
cAMP PDE = test: Enzyme inhibitory activity, cAMP PDE (crude enzymatic solution from rat brains); type: biochemical; details: for IC50: 14C-labeled cAMP substrate 0.14 μmoles, pH 8.0, 30° C., 20 minutes, read-out: I50 (50% inhibition value); for potency relative to papaverine: ratio to papaverine
Description: The enzyme inhibitory activity of dihydrodesoxygriseolic acid was measured, as was that of griseolic acid itself and that of the known cAMP PDE inhibitor, papaverine, for purposes of comparison.
The test was carried out following essentially the method of A. L. Pichard and Y. U. Chung [Journal of Biological Chemistry, 251, 5726-5737 (1976)]. A crude enzymatic solution derived from rat brains was used as the source of cAMP PDE.
^14 C-labeled cAMP was used as the substrate. It was employed in a 0.2M Tris-hydrochloric acid buffer solution (pH 8.0) in an amount sufficient to provide a final concentration of 0.14 μmoles. "Tris" is tris(hydroxymethyl)aminomethane. The substrate solution was mixed with an appropriate amount of the compound under test dissolved in 2-5 μl of dimethyl sulfoxide and with 20 μl of a snake venom solution and 40 μl of the crude enzyme solution. Sufficient Tris-hydrochloric acid buffer was added to make a total volume of 100 μl. The mixture was allowed to react at 30° C. for 20 minutes. At the end of this time, the reaction mixture was treated with an Amberlite (trademark) IRP-58 resin and the level of residual adenosine radioactivity in the product was determined.
The results are shown in the following Table 1, in which the I50 values are given in μmoles.

[1] = tested on: male mice of the ddY strain; test: Acute toxicity, intravenous, mice; details: in words, from Table 2
Excerpt: The compounds under test were griseolic acid and dihydrodesoxygriseolic acid. The test animals were male mice of the ddY strain, 5 weeks of age and weighing 24.25 g. The mice were employed in groups of 3 or 5 animals for each test.
Administration was intravenous.
The results are reported in Table 2, in the form "a/b", where "a" is the number of deceased animals in the test group at the end of the test and "b" is the total number of animals in the relevant test group.

[2] = Water solubility (stated in words); type: physicochemical

| SMILES | IC50 (cAMP PDE) [µM] | toxicity compared with griseolic acid [1] | water solubility [2] | inhibitory activity compared with griseolic acid (cAMP PDE; in words, from Table 1) | potency relative to papaverine (cAMP PDE; from Table 1) |
| --- | --- | --- | --- | --- | --- |
| COc1ccc(Cc2nccc3cc(OC)c(OC)cc23)cc1OC [papaverine, reference compound] | 3.5 |  |  |  |  |
| Nc1ncnc2c1ncn2C1OC2CC(CC(=O)O)(C(=O)O)OC2C1O (centres unmarked) [dihydrodesoxygriseolic acid] | 0.12 | substantially less toxic than griseolic acid | water-soluble | comparable with that of griseolic acid | about 20 times |
| Nc1ncnc2c1ncn2[C@@H]1OC2=C[C@@](C(=O)O)(C(O)C(=O)O)O[C@H]2[C@H]1O (some centres unmarked) [griseolic acid] | 0.16 |  |  |  | about 20 times |
